In paper PMC8385015, “Tumour-on-chip microfluidic platform for assessment of drug pharmacokinetics and treatment response” (Communications Biology, 2021):
Where “and” joins values, the source holds several entries; their conditions need not be identical. Equal entries are not always repeated.

Experiments:
Format in all cases: cell-based
[1] = tested on: SW620 spheroids; assay: SW620 spheroid viability (CellTiterGlo 3D), microfluidic Ibidi chip
From the text: The tested schedules were designed to recapitulate mouse plasma PK profiles from similar schedules used in in vivo efficacy studies (Table 1) with a desire to reverse translate in vivo data and to evaluate the predictive ability of our microfluidic chip setup. […] We investigated changes in the spheroid volume, as well as viability using the CellTiterGlo assay. To evaluate whether our system could also be used to monitor treatment impact on pharmacodynamic biomarkers, we collected individual spheroids at the end of the treatment period and performed immunofluorescence analysis for γH2AX (DNA double strand break marker), cleaved caspase 3 (apoptosis) and Ki67 (proliferation marker), as detailed in “Methods” section and Supplementary Fig. 2. Each treatment condition was repeated at least three times and measurements for each condition were pooled from at least six spheroid replicates.
To mimic in vivo anti-cancer drugs PK profile at a constant flow rate, an 8-point concentration scale for specific durations was used. Each drug was delivered at a specific concentration, for a specific amount of time, consistent with the average concentration for the same durations in vivo, on a 24-h step schedule.
Each compound concentration/timing represented an average of the corresponding in vivo plasma values, measured by mass spectrometry (Supplementary Methods 4 and 5).
Spheroid viability assessment used a metabolic method (CellTiterGlo 3D, G9681, Promega) by measuring luminescence units expressed by individually recovered spheroids. Each chip bottom polymer film was cut using a scalpel and spheroids were individually collected and transferred in 25 µL media to the wells of a half area 96-well plate (1/2 AreaPlate-96, white, 6002290, Perkin-Elmer). CellTiterGlo vial was allowed to thaw (1 h, room temperature) and 25 µL reagent were added to each spheroid well. Plates were lidded with black sealing tape (Nunc, 731-0750, VWR) and placed on and orbital shaker for 40′. Luminescence levels were measured using a SpectraMax i3X (Molecular Devices, USA).

[2] = tested on: γH2AX; assay: γH2AX immunofluorescence in SW620 spheroids, microfluidic chip; settings: SN38 monotherapy, day 7
From the text: (§1) SN38 is a TOP1 inhibitor that that prevents relegation of the DNA strand by binding to TOP1–DNA complex and causes DNA double strand breaks (DSBs). Those DNA DSB lesions trigger activation of the ATM kinase for effective repair. Inhibition of ATM and consequent accumulation of unrepaired breaks leading to increased cell death provides the rationale for developing this combination for cancer treatment. […] Here, we tested whether different schedules lead to different activation of pharmacodynamic markers that are associated with DNA DSB damage, apoptosis and cell proliferation. The γ-H2AX associated foci accumulate in cells exposed to DBS inducing agents[18],[19]. These foci can be detected by immunostaining to determine their, size and morphology. However, spheroid imaging using a 20x objective on a CV7000 confocal microscope cannot accurately explore foci morphology, so we introduced customised ImageJ macros (described in “Methods” section, Supplementary Fig. 2 and Supplementary Method 1) to quantitate positive cells within a spheroid. The same method was applied to quantitate CC3-positive (apoptotic) cells, while normalisation by spheroid area was not required for Ki67, as this biomarker is present in all proliferating cells. […]
Supplementary Figure 2. Fluorescence image processing, per biomarker, using Fiji ImageJ custom-made macros […]

[3] = tested on: Ki67; assay: Ki67 immunofluorescence in SW620 spheroids, microfluidic chip
From the text: as §1
Total Hoechst area represents a parameter used for normalization within biomarker quantitation. […]

For `CCc1c2c(nc3ccc(O)cc13)-c1cc3c(c(=O)n1C2)COC(=O)[C@]3(O)CC` [SN38], the spheroid viability ([1]; Microfluidic Ibidi chip, 6 days, CellTiterGlo, replicates (Fig 2d raw data), unit not given) was 62.9 and 51.36 and 50.85 and 54.46 and 62.33 and 64.07 (2×), the spheroid viability ([1]; microfluidic chip, SN38 mono (1d), day 7, single spheroids) was 6192690 RLU and 5479774 RLU and 8813513 RLU and 7953995 RLU and 8522809 RLU and 9260029 RLU and 5533818 RLU and 5710166 RLU and the reduction in viability ([1]; microfluidic, dosed to mimic in vivo PK profile, 6 days) was ~ 40%. The “change in γH2AX compared to the control group” value [2] was “did not observe a significant change”, the Ki67 positive area ([3]; Mono SN38, day 7, single spheroids) was 3.88E+07 and 4.54E+07 and 3.33E+07 and 4.06E+07 and 4.69E+07 and the “decrease in proliferation (Ki67) compared to control” value ([3]; SN38 monotherapy, day 7) was “about 20%”.
